Test results: patent publication US9688695B2, “Imidazothiadiazole and imidazopyrazine derivatives as protease activated receptor 4 (PAR4) inhibitors for treating platelet aggregation” (BRISTOL-MYERS SQUIBB COMPANY, priority 2012, dated 2017)

Molecular target: PAR4 (Homo sapiens (Human), UniProt Q96RI0)
Test: FLIPR assay in PAR4-expressing HEK293 cells (PAR4 antagonist activity, calcium mobilization)
Type: cell-based
Conditions: H-Ala-Phe(4-F)-Pro-Gly-Trp-Leu-Val-Lys-Asn-Gly-NH2-induced calcium mobilization
In short: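 HEK293 EBNA cells stably expressing human PAR4 (also endogenous PAR1) preincubated 30 min at room temperature with compound in HBSS/10 mM HEPES, 0.67% DMSO final. PAR4 agonist peptide then added and intracellular calcium mobilization monitored by fluorescence.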

PAR4, sequence (Q96RI0 18-385): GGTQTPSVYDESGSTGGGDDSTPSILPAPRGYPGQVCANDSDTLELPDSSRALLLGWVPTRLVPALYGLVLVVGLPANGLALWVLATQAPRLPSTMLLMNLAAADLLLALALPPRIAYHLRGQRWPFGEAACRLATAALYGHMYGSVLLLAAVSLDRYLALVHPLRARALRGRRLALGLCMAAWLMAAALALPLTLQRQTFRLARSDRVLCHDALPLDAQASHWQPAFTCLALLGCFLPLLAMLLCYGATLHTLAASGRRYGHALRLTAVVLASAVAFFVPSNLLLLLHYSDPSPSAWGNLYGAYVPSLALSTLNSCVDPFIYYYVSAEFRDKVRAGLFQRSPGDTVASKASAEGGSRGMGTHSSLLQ

EC50	Structure (SMILES)
0.92 nM	COc1cc(OCc2csc(C3(O)CCC(C(=O)O)CC3)n2)c2cc(-c3cn4nc(OC)sc4n3)oc2c1 (stereo not shown) [Example 150, 4-Hydroxy-4-(4-(((6-methoxy-2-(2-methoxyimidazo[2,1-b][1,3,4]thiadiazol-6-yl)benzofuran-4-yl)oxy)methyl)thiazol-2-yl)cyclohexanecarboxylic acid]
0.26 nM	COc1cc(OCc2csc(C3(C)CCOCC3)n2)c2cc(-c3cn4nc(OC)sc4n3)oc2c1 [Example 167, 2-Methoxy-6-(6-methoxy-4-((2-(4-methyltetrahydro-2H-pyran-4-yl)thiazol-4-yl)methoxy)benzofuran-2-yl)imidazo[2,1-b][1,3,4]thiadiazole]
0.26 nM	COc1cc(OCc2csc(N3C[C@@H](C)O[C@@H](C)C3)n2)c2cc(-c3cn4nc(OC)sc4n3)oc2c1 [Example 51]
0.33 nM	COc1cc(OCc2csc(CCC(F)(F)F)n2)c2cc(-c3cn4nc(OC)sc4n3)oc2c1 [Example 58]
0.98 nM	COc1cc(OCc2csc(-c3ccc(F)cc3)n2)c2cc(-c3cn4nc(OC)sc4n3)oc2c1 [Example 15]
0.34 nM	COc1cc(OCc2csc(C3(F)CCOCC3)n2)c2cc(-c3cn4nc([C@H](C)F)sc4n3)oc2c1 [Example 197, (S)-2-(1-Fluoroethyl)-6-(4-((2-(4-fluorotetrahydro-2H-pyran-4-yl)thiazol-4-yl)methoxy)-6-methoxybenzofuran-2-yl)imidazo[2,1-b][1,3,4]thiadiazole]
0.98 nM	COc1cc(OCc2csc(N(C)CCC#N)n2)c2cc(-c3cn4nc(OC)sc4n3)oc2c1 [Example 106, 3-((4-(((6-Methoxy-2-(2-methoxyimidazo[2,1-b][1,3,4]thiadiazol-6-yl)benzofuran-4-yl)oxy)methyl)thiazol-2-yl)(methyl)amino)propanenitrile]
1.7 nM	COc1cc(OCc2csc(C3(N[S@+]([O-])C(C)(C)C)CCOCC3)n2)c2cc(-c3cn4nc(OC)sc4n3)oc2c1 [Example 170, (R)-N-(4-(4-(((6-Methoxy-2-(2-methoxyimidazo[2,1-b][1,3,4]thiadiazol-6-yl)benzofuran-4-yl)oxy)methyl)thiazol-2-yl)tetrahydro-2H-pyran-4-yl)-2-methylpropane-2-sulfinamide]
0.65 nM	COc1cc(OCc2csc(-c3cccnc3)n2)c2cc(-c3cn4nc(OC)sc4n3)oc2c1 [Example 30]
3.6 nM	COc1cc(OCc2csc(C3(c4ccc(C)cc4)CCOCC3)n2)c2cc(-c3cn4nc(OC)sc4n3)oc2c1 [Example 157, 2-Methoxy-6-(6-methoxy-4-((2-(4-(p-tolyl)tetrahydro-2H-pyran-4-yl)thiazol-4-yl)methoxy)benzofuran-2-yl)imidazo[2,1-b][1,3,4]thiadiazole]
0.32 nM	CCc1sc(N2CCOCC2)nc1COc1cc(OC)cc2oc(-c3cn4nc(OC)sc4n3)cc12 [Example 105, 4-(5-Ethyl-4-(((6-methoxy-2-(2-methoxyimidazo[2,1-b][1,3,4]thiadiazol-6-yl)benzofuran-4-yl)oxy)methyl)thiazol-2-yl)morpholine]
2.6 nM	COc1cncc(-c2nc(COc3cc(OC)cc4oc(-c5cn6nc(OC)sc6n5)cc34)cs2)c1 [Example 79]
0.25 nM	COc1cc(OCc2csc(N3CCN(S(C)(=O)=O)CC3)n2)c2cc(-c3cn4nc(OC)sc4n3)oc2c1 [Example 100, 2-Methoxy-6-(6-methoxy-4-((2-(4-(methylsulfonyl)piperazin-1-yl)thiazol-4-yl)methoxy)benzofuran-2-yl)imidazo[2,1-b][1,3,4]thiadiazole]
1.1 nM	COc1cc(OCc2csc(C3CCCCC3)n2)c2cc(-c3cn4nc(OC)sc4n3)oc2c1 [Example 20]
0.79 nM	COc1cc(OCc2csc(C3(O)CCC(F)(F)CC3)n2)c2cc(-c3cn4nc(OC)sc4n3)oc2c1 [Example 135, 4,4-Difluoro-1-(4-(((6-methoxy-2-(2-methoxyimidazo[2,1-b][1,3,4]thiadiazol-6-yl)benzofuran-4-yl)oxy)methyl)thiazol-2-yl)cyclohexanol]
0.75 nM	COc1cc(OCc2nc(-c3ccc(C(=O)N(C)C)cc3)sc2C)c2cc(-c3cn4nc(OC)sc4n3)oc2c1 [Example 66]
1.3 nM	COc1cc(OCc2csc(C3=CCOc4ccccc43)n2)c2cc(-c3cn4nc(OC)sc4n3)oc2c1 [Example 169, 6-(4-((2-(2H-Chromen-4-yl)thiazol-4-yl)methoxy)-6-methoxybenzofuran-2-yl)-2-methoxyimidazo[2,1-b][1,3,4]thiadiazole]
0.37 nM	COc1cc(OCc2csc(C3=CCC(C(=O)OC(C)(C)C)CC3)n2)c2cc(-c3cn4nc(OC)sc4n3)oc2c1 (stereo not shown) [Example 148, tert-Butyl 4-(4-(((6-methoxy-2-(2-methoxyimidazo[2,1-b][1,3,4]thiadiazol-6-yl)benzofuran-4-yl)oxy)methyl)thiazol-2-yl)cyclohex-3-enecarboxylate]
0.29 nM	COc1cc(OCc2nc(C3(O)CCOCC3)sc2C)c2cc(-c3cn4nc(OC)sc4n3)oc2c1 [Example 124, 4-(4-(((6-Methoxy-2-(2-methoxyimidazo[2,1-b][1,3,4]thiadiazol-6-yl)benzofuran-4-yl)oxy)methyl)-5-methylthiazol-2-yl)tetrahydro-2H-pyran-4-ol]
0.52 nM	COc1cc(OCc2csc(N3CCSCC3)n2)c2cc(-c3cn4nc(OC)sc4n3)oc2c1 [Example 53]

The remaining lines, values behind:

Structure (SMILES)	EC50
COc1cc(OCc2csc(-c3ccc(OC(F)(F)F)cc3)n2)c2cc(-c3cn4nc(OC)sc4n3)oc2c1 [Example 29]	1.4 nM
COc1nn2cc(-c3cc4c(OCc5csc(-c6cccc(C)c6)n5)cc(Cl)cc4o3)nc2s1 [Example 189, 6-(6-Chloro-4-((2-(m-tolyl)thiazol-4-yl)methoxy)benzofuran-2-yl)-2-methoxyimidazo[2,1-b][1,3,4]thiadiazole]	1.3 nM
COc1cc(OCc2csc(-c3cccc(C#N)c3)n2)c2cc(-c3cn4nc(OC)sc4n3)oc2c1 [Example 61]	0.64 nM
COc1cc(OCc2csc(-c3cccc(OC(C)=O)c3)n2)c2cc(-c3cn4nc(C)ccc4n3)oc2c1 [Example 221]	1.2 nM
COc1nn2cc(-c3cc4c(OCc5csc(-c6ccccc6)n5)cc(Cl)cc4o3)nc2s1 [Example 187, 6-(6-Chloro-4-((2-phenylthiazol-4-yl)methoxy)benzofuran-2-yl)-2-methoxyimidazo[2,1-b][1,3,4]thiadiazole]	1.6 nM
COc1cc(OCc2csc(-c3ccc(C(=O)N(C)C(C)C)cc3)n2)c2cc(-c3cn4nc(OC)sc4n3)oc2c1 [Example 310]	0.53 nM
COc1cc(OCc2csc(-c3ccccc3)n2)c2cc(-c3cn4nc(C)ccc4n3)oc2c1 [Example 203, 4-(((6-Methoxy-2-(6-methylimidazo[1,2-b]pyridazin-2-yl)benzofuran-4-yl)oxy)methyl)-2-phenylthiazole]	0.76 nM
COCCN(CCOC)c1nc(COc2cc(OC)cc3oc(-c4cn5nc(C)ccc5n4)cc23)cs1 [Example 246]	1.4 nM
COc1cc(OCc2csc(N3CCOCC3)n2)c2cc(-c3cn4nc(C)ccc4n3)oc2c1 [Example 215]	3.3 nM
COc1cc(OCc2csc(N3CCOC(C)C3)n2)c2cc(-c3cn4nc(C)ccc4n3)oc2c1 (stereo not shown) [Example 277]	1.1 nM
COc1cc(OCc2csc(-c3cccc(OC(C)=O)c3)n2)c2cc(-c3cn4nc(OC)sc4n3)oc2c1 [Example 62]	0.48 nM
COc1cc(OCc2csc(-c3cccc(C(F)(F)F)c3)n2)c2cc(-c3cn4nc(OC)sc4n3)oc2c1 [Example 17]	1.1 nM
CCN(CCC#N)C(=O)c1ccc(-c2nc(COc3cc(F)cc4oc(-c5cn6nc(OC)sc6n5)cc34)cs2)cc1 [Example 180, N-(2-Cyanoethyl)-N-ethyl-4-(4-(((6-fluoro-2-(2-methoxyimidazo[2,1-b][1,3,4]thiadiazol-6-yl)benzofuran-4-yl)oxy)methyl)thiazol-2-yl)benzamide]	0.47 nM
COc1cc(OCc2csc(C3CCN(S(=O)(=O)C(F)(F)F)CC3)n2)c2cc(-c3cn4nc(OC)sc4n3)oc2c1 [Example 114, 2-Methoxy-6-(6-methoxy-4-((2-(1-((trifluoromethyl)sulfonyl)piperidin-4-yl)thiazol-4-yl)methoxy)benzofuran-2-yl)imidazo[2,1-b][1,3,4]thiadiazole]	0.49 nM
COc1cc(OCc2csc(C3CCN(C(=O)c4ccccc4)CC3)n2)c2cc(-c3cn4nc(OC)sc4n3)oc2c1 [Example 110, (4-(4-(((6-Methoxy-2-(2-methoxyimidazo[2,1-b][1,3,4]thiadiazol-6-yl)benzofuran-4-yl)oxy)methyl)thiazol-2-yl)piperidin-1-yl)(phenyl)methanone]	0.78 nM
COc1nn2cc(-c3cc4c(OCc5csc(-c6ccc(Cl)cc6)n5)cc(Cl)cc4o3)nc2s1 [Example 188, 6-(6-Chloro-4-((2-(4-chlorophenyl)thiazol-4-yl)methoxy)benzofuran-2-yl)-2-methoxyimidazo[2,1-b][1,3,4]thiadiazole]	0.85 nM
COc1cc(OCc2csc(C3CCOCC3)n2)c2cc(-c3cn4nc(C)ccc4n3)oc2c1 [Example 213]	3.6 nM
COc1cc(OCc2csc(-c3ccc(C(=O)NC(C)(C)C)cc3)n2)c2cc(-c3cn4nc(OC)sc4n3)oc2c1 [Example 41, N-(tert-Butyl)-4-(4-(((6-methoxy-2-(2-methoxyimidazo[2,1-b][1,3,4]thiadiazol-6-yl)benzofuran-4-yl)oxy)methyl)thiazol-2-yl)benzamide]	0.9 nM
COc1cc(OCc2csc(N3C[C@@H](C)O[C@@H](C)C3)n2)c2cc(-c3cn4nc(C)ccc4n3)oc2c1 [Example 216]	0.99 nM
COc1cc(OCc2csc(-c3ccc(C(=O)N(C)C4COC4)cc3)n2)c2cc(-c3cn4nc(OC)sc4n3)oc2c1 [Example 298]	0.99 nM
COc1cc(OCc2csc(N3CC[C@@H](O)C3)n2)c2cc(-c3cn4nc(C)ccc4n3)oc2c1 [Example 253]	9.7 nM
COc1cc(OCc2csc(-c3ccc(Cl)nc3)n2)c2cc(-c3cn4nc(C)ccc4n3)oc2c1 [Example 233]	2.8 nM
COc1cc(OCc2csc(N3CCN(Cc4cccnc4)CC3)n2)c2cc(-c3cn4nc(C)ccc4n3)oc2c1 [Example 270]	5.8 nM
